Experimental data published in patent US20250230193A1, “CYCLIC COMPOUND HAVING SELECTIVE KRAS INHIBITORY EFFECT ON HRAS AND NRAS” (CHUGAI SEIYAKU KABUSHIKI KAISHA, priority 2022, published 2025).

Columns and labels:
[1] = target: GDP-bound NRAS wild-type protein (Homo sapiens, UniProt P01111); assay: Binding to NRAS by surface plasmon resonance (SPR), Single Cycle Kinetics; conditions: KD ratio NRAS/KRAS, class symbols
[2] = target: GDP-bound HRAS wild-type protein (Homo sapiens, UniProt P01112); assay: Binding to HRAS by surface plasmon resonance (SPR), Single Cycle Kinetics; conditions: KD ratio HRAS/KRAS, class symbols
GDP-bound HRAS wild-type protein, sequence (P01112 whole entry): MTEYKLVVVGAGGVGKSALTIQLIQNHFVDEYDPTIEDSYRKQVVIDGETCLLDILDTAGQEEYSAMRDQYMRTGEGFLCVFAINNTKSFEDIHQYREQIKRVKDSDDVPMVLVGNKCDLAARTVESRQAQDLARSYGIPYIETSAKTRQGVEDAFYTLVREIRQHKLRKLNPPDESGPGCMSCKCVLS

GDP-bound NRAS wild-type protein, sequence (P01111 whole entry): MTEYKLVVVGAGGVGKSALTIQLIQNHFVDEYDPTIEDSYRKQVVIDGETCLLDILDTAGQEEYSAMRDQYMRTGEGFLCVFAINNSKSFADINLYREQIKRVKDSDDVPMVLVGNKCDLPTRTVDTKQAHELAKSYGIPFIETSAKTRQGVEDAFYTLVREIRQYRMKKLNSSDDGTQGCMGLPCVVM

| Compound | NRAS/KRAS (ratio of KD value with respect to GDP-bound NRAS wild-type protein to KD value with respect to KRAS) [1] | HRAS/KRAS (ratio of KD value with respect to GDP-bound HRAS wild-type protein to KD value with respect to KRAS) [2] |
| --- | --- | --- |
| CCC[C@H]1C(=O)N[C@@H]([C@@H](C)CC)C(=O)N(C)CC(=O)N(C)[C@H]2C/C=C\CCN(C2=O)[C@@H](Cc2ccc(C(F)(F)F)cc2)C(=O)N(C)CC(=O)N[C@@H](CCc2ccc(Cl)c(Cl)c2)C(=O)N2CCOC[C@H]2C(=O)NC2(CC(C)(C)C2)C(=O)N(C)[C@@H](C(CC)CC)C(=O)N(C)[C@H](C(=O)N(C)C)CC(=O)N1C [PP2920] | AA (a compound having 20 or more is denoted as AA) | A (a compound having 10 or more and less than 20 is denoted as A) |
| CCC[C@H]1C(=O)N[C@@H]([C@@H](C)CC)C(=O)N(C)CC(=O)N(C)[C@H]2C/C=C\CCN(C2=O)[C@@H](Cc2ccc(C(F)(F)F)cc2)C(=O)N(C)CC(=O)N[C@@H](CCc2ccc(Cl)c(Cl)c2)C(=O)N2CC[C@H]2C(=O)NC2(CC(C)(C)C2)C(=O)N(C)[C@@H](C(CC)CC)C(=O)N(C)[C@H](C(=O)N(C)C)CC(=O)N1C [PP2921] | AA (a compound having 20 or more is denoted as AA) | A (a compound having 10 or more and less than 20 is denoted as A) |
| CCC(CC)[C@H]1C(=O)N(C)[C@H](C(=O)N(C)C)CC(=O)N(C)[C@@H](COC)C(=O)N[C@@H]([C@@H](C)CC)C(=O)N(C)CC(=O)N(C)[C@H]2C/C=C\CCN(C2=O)[C@@H](Cc2ccc(C)cc2)C(=O)N(C)CC(=O)N[C@@H](CCc2cc(F)c(C(F)(F)F)c(F)c2)C(=O)N2CCCC[C@H]2C(=O)NC2(CC(C)(C)C2)C(=O)N1C [PP2922] | AA (a compound having 20 or more is denoted as AA) | A (a compound having 10 or more and less than 20 is denoted as A) |
| CCC[C@H]1C(=O)N[C@@H]([C@@H](C)CC)C(=O)N(C)CC(=O)N(C)[C@H]2C/C=C\CCN(C2=O)[C@@H](Cc2ccc(C(F)(F)F)cc2)C(=O)N(C)CC(=O)N[C@@H](CCc2ccc(C(F)(F)F)c(Cl)c2)C(=O)N2CCCC[C@H]2C(=O)NC2(CC(C)(C)C2)C(=O)N(C)[C@@H](C(CC)CC)C(=O)N(C)[C@H](C(=O)N(C)C)CC(=O)N1C [PP2928] | AA (a compound having 20 or more is denoted as AA) | A (a compound having 10 or more and less than 20 is denoted as A) |
| CCC[C@H]1C(=O)N[C@@H]([C@@H](C)CC)C(=O)N(C)CC(=O)N(C)[C@H]2C/C=C\CCN(C2=O)[C@@H](Cc2ccc(C(F)(F)F)cc2)C(=O)N(C)CC(=O)N[C@@H](CCc2ccc(C(F)(F)F)c(Cl)c2)C(=O)N2CCOC[C@H]2C(=O)NC2(CC(C)(C)C2)C(=O)N(C)[C@@H](C(CC)CC)C(=O)N(C)[C@H](C(=O)N(C)C)CC(=O)N1C [PP2929] | AA (a compound having 20 or more is denoted as AA) | A (a compound having 10 or more and less than 20 is denoted as A) |
| CCC(CC)[C@H]1C(=O)N(C)[C@H](C(=O)N(C)C)CC(=O)N(C)[C@@H](COC)C(=O)N[C@@H]([C@@H](C)CC)C(=O)N(C)CC(=O)N(C)[C@H]2C/C=C\CCN(C2=O)[C@@H](Cc2ccc(C)cc2)C(=O)N(C)CC(=O)N[C@@H](CCc2ccc(C(F)(F)F)c(Cl)c2)C(=O)N2CCCC[C@H]2C(=O)NC2(CC(C)(C)C2)C(=O)N1C [PP2931] | A (a compound having 10 or more and less than 20 is denoted as A) | A (a compound having 10 or more and less than 20 is denoted as A) |
| CCC[C@H]1C(=O)N[C@@H]([C@@H](C)CC)C(=O)N(C)CC(=O)N(C)[C@H]2C/C=C\CCN(C2=O)[C@@H](Cc2ccc(C(F)(F)F)cc2)C(=O)N(C)CC(=O)N[C@@H](CCc2ccc(C(F)(F)F)c(OC)c2)C(=O)N2CCCC[C@H]2C(=O)NC2(CC(C)(C)C2)C(=O)N(C)[C@@H](C(CC)CC)C(=O)N(C)[C@H](C(=O)N(C)C)CC(=O)N1C [PP2934] | AA (a compound having 20 or more is denoted as AA) | A (a compound having 10 or more and less than 20 is denoted as A) |
| CCC[C@H]1C(=O)N[C@@H]([C@@H](C)CC)C(=O)N(C)CC(=O)N(C)[C@H]2C/C=C\CCN(C2=O)[C@@H](Cc2ccc(C(F)(F)F)cc2)C(=O)N(C)CC(=O)N[C@@H](CCc2ccc(C(F)(F)F)c(OC)c2)C(=O)N2CCOC[C@H]2C(=O)NC2(CC(C)(C)C2)C(=O)N(C)[C@@H](C(CC)CC)C(=O)N(C)[C@H](C(=O)N(C)C)CC(=O)N1C [PP2935] | A (a compound having 10 or more and less than 20 is denoted as A) | A (a compound having 10 or more and less than 20 is denoted as A) |
| CCC[C@H]1C(=O)N[C@@H]([C@@H](C)CC)C(=O)N(C)CC(=O)N(C)[C@H]2C/C=C\CCN(C2=O)[C@@H](Cc2ccc(C(F)(F)F)cc2)C(=O)N(C)CC(=O)N[C@@H](CCc2ccc(C(F)(F)F)c(OC)c2)C(=O)N2CC[C@H]2C(=O)NC2(CC(C)(C)C2)C(=O)N(C)[C@@H](C(CC)CC)C(=O)N(C)[C@H](C(=O)N(C)C)CC(=O)N1C [PP2936] | AA (a compound having 20 or more is denoted as AA) | A (a compound having 10 or more and less than 20 is denoted as A) |
| CCC(CC)[C@H]1C(=O)N(C)[C@H](C(=O)N(C)C)CC(=O)N(C)[C@@H](COC)C(=O)N[C@@H]([C@@H](C)CC)C(=O)N(C)CC(=O)N(C)[C@H]2C/C=C\CCN(C2=O)[C@@H](Cc2ccc(C)cc2)C(=O)N(C)CC(=O)N[C@@H](CCc2ccc(C(F)(F)F)c(OC)c2)C(=O)N2CCCC[C@H]2C(=O)NC2(CC(C)(C)C2)C(=O)N1C [PP2937] | A (a compound having 10 or more and less than 20 is denoted as A) | A (a compound having 10 or more and less than 20 is denoted as A) |
| CCC(CC)[C@H]1C(=O)N(C)[C@H](C(=O)N(C)C)CC(=O)N(C)[C@@H](COC)C(=O)N[C@@H]([C@@H](C)CC)C(=O)N(C)CC(=O)N(C)[C@H]2C/C=C\CCN(C2=O)[C@@H](Cc2ccc(C)cc2)C(=O)N(C)CC(=O)N[C@@H](CCc2ccc(C(F)(F)F)c(OC)c2)C(=O)N2CCOC[C@H]2C(=O)NC2(CC(C)(C)C2)C(=O)N1C [PP2938] | AA (a compound having 20 or more is denoted as AA) | A (a compound having 10 or more and less than 20 is denoted as A) |
| CCC(CC)[C@H]1C(=O)N(C)[C@H](C(=O)N(C)C)CC(=O)N(C)[C@@H](COC)C(=O)N[C@@H]([C@@H](C)CC)C(=O)N(C)CC(=O)N(C)[C@H]2C/C=C\CCN(C2=O)[C@@H](Cc2ccc(C(F)(F)F)cc2)C(=O)N(C)CC(=O)N[C@@H](CCc2ccc(Cl)c(Cl)c2)C(=O)N2CCOC[C@H]2C(=O)NC2(CC(C)(C)C2)C(=O)N1C [PP2941] | AA (a compound having 20 or more is denoted as AA) | A (a compound having 10 or more and less than 20 is denoted as A) |
| CCC[C@H]1C(=O)N[C@@H]([C@@H](C)CC)C(=O)N(C)CC(=O)N(C)[C@H]2C/C=C\CCN(C2=O)[C@@H](Cc2ccc(C(F)(F)F)cc2)C(=O)N(C)CC(=O)N[C@@H](CCc2cc(Cl)c3sccc3c2)C(=O)N2C[C@H](OCC)C[C@H]2C(=O)NC2(CC(C)(C)C2)C(=O)N(C)[C@@H](C2CCCC2)C(=O)N(C)[C@H](C(=O)N(C)C)CC(=O)N1C [PP2946] | A (a compound having 10 or more and less than 20 is denoted as A) | A (a compound having 10 or more and less than 20 is denoted as A) |
| CCC[C@H]1C(=O)N[C@@H]([C@@H](C)CC)C(=O)N(C)CC(=O)N(C)[C@H]2C/C=C\CCN(C2=O)[C@@H](Cc2ccc(C)cc2)C(=O)N(C)CC(=O)N[C@@H](CCc2cc(Cl)c3sccc3c2)C(=O)N2C[C@H](OCC)C[C@H]2C(=O)NC2(CC(C)(C)C2)C(=O)N(C)[C@@H](C2CCCC2)C(=O)N(C)[C@H](C(=O)N(C)C)CC(=O)N1C [PP2947] | B (a compound having 3 or more and less than 10 is denoted as B) | B (a compound having 3 or more and less than 10 is denoted as B) |
| CCC[C@H]1C(=O)N[C@@H]([C@@H](C)CC)C(=O)N(C)CC(=O)N(C)[C@H]2C/C=C\CCN(C2=O)[C@@H](Cc2ccc(C(F)(F)F)cc2)C(=O)N(C)CC(=O)N[C@@H](CCc2ccc3sc(F)c(C)c3c2)C(=O)N2C[C@H](OCC)C[C@H]2C(=O)NC2(CC(C)(C)C2)C(=O)N(C)[C@@H](C2CCCC2)C(=O)N(C)[C@H](C(=O)N(C)C)CC(=O)N1C [PP2948] | A (a compound having 10 or more and less than 20 is denoted as A) | A (a compound having 10 or more and less than 20 is denoted as A) |
